According to patent US20090092550A1, “PORPHYRIN LINKED METRONIDAZOLE AGAINST GUM DISEASE: PORPHYROMONAS GINGIVALIS” (The University of Sydney, priority 2004, published 2009):
≈ marks a conversion by molar mass, not a printed value. Like-named read-outs stand apart in the source and are kept apart here.

What was measured:
[1] = test system: P. gingivalis ATCC 33277 cells; assay: Growth inhibition assay, turbidity (optical density) over 72 h; type: cell-based, Porphyromonas gingivalis
Method: The mono-adducts 20 and 21 and metronidazole were tested on the targeted organism, P. gingivalis with the standard controls to compare the potency of the mono-adducts 20 and 21 compared to metronidazole towards the targeted organism. In a 96-well polystyrene plate divided into four sections, a series of dilutions of the mixture of the mono-adducts 20 and 21, metronidazole, DPIX 5 and DMSO were made up. These were transferred into test-tubes in quadruplicate and the P. gingivalis cells were added in triplicate leaving one test-tube as a blank control free of P. gingivalis cells. The growth of the P. gingivalis cells were monitored over 3 days (72 h) and growth was noted by the turbidity of the medium and recorded as the optical density.
The growth inhibition assays show differences in growth responses to metronidazole and the mixture of the mono-adducts 20 and 21.
(§1) Bovine hemoglobin (Hb), Hb-agarose beads, hemin (Hm) and Hm-agarose beads were supplied by Sigma-Aldrich Company. The translated product of a synthetic HA2 gene, derived from the sequence of RgpA, was expressed in E. coli with a C-terminal polyhistidine tag (International Patent Application No. WO 2002061091) and is referred to as rHA2. rHA2 was functionally purified by Hb-agarose affinity chromatography. Anti-gingipain monoclonal antibody (mAb) 5A1 was prepared in mice. Secondary goat anti-mouse antibody conjugated with alkaline phosphatase (AP) was supplied by Dako Corporation. 4-nitrophenylphosphate (p-NPP) was supplied by Boehringer. P. gingivalis ATCC 33277 cells was used in all growth assays and cultures were anaerobically grown at 37° C. in an atmosphere containing CO2 (5%), H2 (10%) and N2 (85%). P. gingivalis and P. melaminogenica cells were grown in Center for Disease Control (CDC) medium and F. nucleatum cells were grown in Brain Heart Infusion (BHI) medium.
Cultivation and biological testing were carried out on P. gingivalis ATCC 33277 cells and the cultures were anaerobically grown at 37° C. in an atmosphere containing CO2 (5%), H2 (10%) and N2 (85%). The cultures were inoculated with heme, menadione and either DMSO, DPIX 5, metronidazole, DPIX 5+ metronidazole or adduct 20 and 21. In a 96-well polystyrene plate divided into four sections, a series of dilutions of the mixture of the mono-adducts 20 and 21, metronidazole, DPIX 5 and DMSO were made up. These were transferred into test-tubes in quadruplicate and the P. gingivalis cells were added in triplicate leaving one test-tube as a blank control free of P. gingivalis cells. The growth of the P. gingivalis cells were monitored over 3 days (72 h) and growth was noted by the turbidity of the medium and recorded as the optical density.

P. melaminogenica = assay: Growth inhibition assay on a related organism; type: cell-based, Prevotella melaminogenica; conditions: 20 μM, over 72 h (FIG. 7B)
Method: as §1

F. nucleatum = assay: Growth inhibition assay on an unrelated organism; type: cell-based, Fusobacterium nucleatum; conditions: 20 μM, over 72 h (FIG. 7C)
Method: As it is useful to test the mono-adducts 20 and 21 on non-related bacteria as well, as there is a large and complex community of bacteria present in the gingival crevice causing periodontal diseases, the mono-adducts 20 and 21 were also tested on the unrelated organism F. nucleatum.
as §1

[2] = test system: P. gingivalis ATCC 33277 cells; conditions: literature (Poulet et al. 1999; Mitchell 1984); cited from earlier work
[3] = target: HA2 domain (rHA2, derived from the sequence of RgpA); assay: ELISA binding of plate-coated porphyrin to rHA2; design: species or system Porphyromonas gingivalis; conditions: FIG. 5, mean of three similar KD50s, read-out: KD50 to HA2
Method: The KD50 of the mono-adducts 20 and 21 to HA2 was established using Enzyme-Linked ImmunoSorbent Assay (ELISA), whereby a 96-well polystyrene plate was coated with either the mono-adducts 20 and 21 or hemin in an alkaline coating buffer at pH 9.0. The plates were then washed and blocked for 30 min with a phosphate buffered saline solution containing Tween-20, a […] detergent to prevent any non-specific binding. Dilutions of HA2 in a slightly acidic acetate buffer at pH 5.5 were then titrated down the rows of the 96-well plate and the plate was incubated in an IR Sensor CO2 incubator at 37° C. for 1.5 h to allow binding of either the mono-adducts 20 and 21 or hemin to HA2. […] A secondary goat anti-mouse antibody conjugated with alkaline phosphatase (AP) was then added to detect the primary antibody and the binding of either the mono-adducts 20 and 21 or hemin to HA2 was recorded as optical density on a Bio-rad Microplate reader as the amount of dephosphorylation of the substrate para-nitrophenolphosphate to para-nitrophenol catalyzed by AP. […]
The mixture of mono-metronidazole-substituted adducts 20 and 21 and heme (both at 5 μg/ml) were coated on the plastic well surfaces of a 96-well plate in coating buffer at pH 9.0. […] Apparent dissociation constants were calculated from best-fit KD50 binding curves.

[4] = target: HA2 domain (rHA2, derived from the sequence of RgpA); conditions: known value for the standard; read-out: binding dissociation constant to HA2; cited from earlier work

MIC ([1]; Porphyromonas gingivalis, ATCC33277, P. gingivalis, approximate, from FIG. 6, read-out: Minimum Inhibitory Concentration (MIC)) [µM] | Molecule | growth suppression of P. gingivalis ([1]; 0.5 μM, over 72 h (FIG. 6E)) | time after which activity is lost and P. gingivalis growth recovers ([1]; 1 μM (FIG. 6D)) | growth inhibition of P. gingivalis ([1]; 4 μM, over 72 h (FIG. 6B)) | growth inhibition of P. gingivalis ([1]; 20 μM, over 72 h (FIG. 6A, FIG. 7A)) | growth suppression of P. gingivalis ([1]; 2 KM, over 72 h (FIG. 6C)) | growth inhibition of P. melaminogenica (P. melaminogenica) | growth inhibition of F. nucleatum (F. nucleatum) | activity against P. gingivalis [2] | Kd [3] [nM] | Kd [4] [nM]
1 to 2 (≈ 0.171 to 0.342 µg/mL) | Cc1ncc([N+](=O)[O-])n1CCO [metronidazole] | no effect of growth suppression | approximately 50 h | complete inhibition | complete inhibition of growth | completely supresses growth | complete suppression of growth | complete inhibition | excellent activity |  | 
 | hemin |  |  |  |  |  |  |  |  | 15 | ~15
